One may read the MIC as the lowest concentration that inhibits growth of the organism. A higher MIC goes with a need for much substance.

In patent US7547444B1, “Methods for controlling fungi and bacteria” (priority 2003, dated 2009) one finds IC90, anthelmintic effectiveness and MIC data, which are given here for two compounds.

One experiment relates to Phytophthora infestans. The settings on record: Phytophthora infestans (Tomato); 18° C. for 7 days.
For the next experiment, the system named is Botrytis cinerea. The experiment is described as follows: Plant relevant mold panel, microtiter plate growth inhibition (OD 405 nm), IC 90. It counts as cell-based. The conditions noted are these: Botrytis cinerea (Vegetable); 18° C. for 7 days.
Experiment [1] deals with Colletotrichum lagenarium. The experiment is described as above. It is filed as cell-based. The settings on record: Colletotrichum lagenarium (Mellons); 18° C. for 7 days.
A further experiment has as its system Rhizoctonia solani. The description is as above. It is filed as cell-based. The conditions noted are these: Rhizoctonia solani (Rice Sheath); 18° C. for 7 days.
Another experiment deals with Fusarium culmorum. The settings on record: Fusarium culmorum (Wheat Head); 18° C. for 7 days.
Another experiment concerns Pyrenophora teres. The experiment is described as follows: Plant relevant mold panel, microtiter plate growth inhibition (OD 405 nm), IC 90. It is filed as cell-based. The conditions noted are these: Pyrenophora teres (Barley); 18° C. for 7 days.
In the next experiment the test system is Cochliobolus mijabeanus. The settings on record: Cochliobolus mijabeanus (Corn); 18° C. for 7 days.
Experiment [2] deals with roundworms, threadworms, and whipworms. The settings on record: reported; cited from earlier work.
The next experiment relates to Alternaria solani. The settings on record: Alternaria solani (Potato); 18° C. for 7 days.
The test system of another experiment is Pyricularia oryzae. The conditions noted are these: Pyricularia oryzae (Rice); 18° C. for 7 days.
The test system of the next experiment is Septonia tritici. The experiment is described as follows: Plant relevant mold panel, microtiter plate growth inhibition (OD 405 nm), IC 90. It is filed as cell-based. The conditions noted are these: Septonia tritici (Wheat Leaf); 18° C. for 7 days.
The next experiment concerns Streptococcus faecalis. The settings on record: in vitro, 24 hours at 35° C.
Another experiment deals with Candida tropicalis. The conditions noted are these: in vitro, 24 hours at 35 degrees C.
The subject of another experiment is Aspergillus flavus. The settings on record: in vitro, 24 hours at 35 degrees C.
The test system of a further experiment is Bordella bronchiseptica. The settings on record: in vitro, 24 hours at 35° C.
A further experiment deals with Candida albicans. The settings on record: in vitro, 24 hours at 35 degrees C.
The next experiment concerns Cryptococcus neoformans. The settings on record: in vitro, 24 hours at 35 degrees C.
A further experiment relates to Fusarium solani. The conditions noted are these: in vitro, 24 hours at 35 degrees C.
The next experiment has as its system Aspergillus fumigatus. The settings on record: in vitro, 24 hours at 35 degrees C.
The next experiment deals with Pseudomonas aerugenosa. The settings on record: in vitro, 24 hours at 35° C.
A further experiment deals with Streptococcus algalactia. The settings on record: in vitro, 24 hours at 35° C.
Another experiment deals with E. coli. The conditions noted are these: in vitro, 24 hours at 35° C.
A further experiment deals with Staphylococcus aureus. The conditions noted are these: in vitro, 24 hours at 35° C.
For experiment [3], the system named is Trichophyton mentagrophyt.
In another experiment the test system is Streptococcus pyogenes. The settings on record: in vitro, 24 hours at 35° C.
Another experiment has as its system Vibrio cholerae. The conditions noted are these: in vitro, 24 hours at 35° C.
For a further experiment, the system named is Pasturella multocida. The settings on record: in vitro, 24 hours at 35° C.

Method for Alternaria solani: (§1) A stock solution of the compound was prepared in DMSO at a concentration of 10,000 ppm a.i. Further dilutions were prepared with water. The test was conducted at the following concentrations: 125, 31, 8, 21, 0.5 and 0.125 ppm a.i. Spore suspensions of the fungi were prepared. The test was conducted in microtiter plates and for each fungus and each concentration, 3 wells were prepared. Incubation of the inoculated plates was carried out at 18° C. for 7 days. After this time, the optical density of the mycelium developed in each well was measured at 405 nm.
Method for Cochliobolus mijabeanus: as §1
Method for Fusarium culmorum: as §1

With `CC[n+]1c(/C=C/c2ccc(N3CCCC3)cc2)cccc1/C=C/c1ccc(N2CCCC2)cc1.[I-]` [Stilbazium iodide], the IC90 was 2 ppm a.i in the experiment with Phytophthora infestans; 0.5 ppm a.i in the experiment with Botrytis cinerea; 31 ppm a.i in [1]; 2 ppm a.i in the experiment on Rhizoctonia solani; more than 125 ppm a.i in the experiment with Fusarium culmorum; 31 ppm a.i with Pyrenophora teres. The IC90 is recorded as more than 125 ppm a.i in the experiment with Cochliobolus mijabeanus, more than 125 ppm a.i in the experiment on Alternaria solani, 8 ppm a.i in the experiment with Pyricularia oryzae and 2 ppm a.i with Septonia tritici. For the same compound, the anthelmintic effectiveness result in experiment [2] is on record as “effective”.

Stilbazium Chloride [formula I]: the MIC in the experiment on Streptococcus faecalis is 1.0 µg/mL; in the experiment with Trichophyton rubrum it was 1.6 µg/mL; against Microsporidium gypseum, 1.6 µg/mL; with Candida tropicalis, less than 0.4 µg/mL; against Aspergillus flavus it was 6.25 µg/mL; with Bordella bronchiseptica, 1.0 µg/mL. Moreover, the MIC in the experiment on Candida albicans was less than 0.006 µg/mL; with Cryptococcus neoformans, less than 0.4 µg/mL; against Microsporidium canis, 1.6 µg/mL; against Fusarium solani, less than 0.4 µg/mL; with Aspergillus fumigatus, less than 0.006 µg/mL; in the experiment on Pseudomonas aerugenosa it was more than 100 µg/mL. In addition, the minimal inhibitory concentration (MIC) in the experiment with Streptococcus algalactia is 1.0 µg/mL; in the experiment on E. coli it was more than 100 µg/mL; in the experiment with Staphylococcus aureus, 0.3 µg/mL; in [3], 1.6 µg/mL; in the experiment on Epidermophyton floccsum it was 1.6 µg/mL; against Streptococcus pyogenes it was 1.0 µg/mL. Moreover, the minimum inhibitory concentration (MIC) in the experiment on Vibrio cholerae is 10.0 µg/mL; with Saccharomyces cervisciae, less than 0.4 µg/mL; with Rhizopus arrihizus, 6.25 µg/mL; against Trichophyton eguinium, 1.6 µg/mL; in the experiment with Pasturella multocida, 3.0 µg/mL.
